Experimental data as given in patent US20080292627A1, “Compositions and Methods for Treating Mood and Anxiety Disorders” (THE BOARD OF TRUSTEES OF THE UNIVERSITY OF ILLINOIS, priority 2005, published 2008).

Assays:
tubulin [1] = assay: SPOT membrane peptide array, tubulin binding to immobilized Gsα-derived peptides; design: species or system Ovine; conditions: equimolar Gsα (150 nM), 37° C., 1 hour; SPOT membrane 1
Description: Peptides were synthesized on to a cellulose membrane with PEG spacer (8×12 cm^2) (AIMS Scientific Products, Braunschweig, Germany) via the C-terminal amino acid in sequential spots by the use of a SPOT synthesis kit (SIGMA genosys, St. Louis, Mo.) (Frank, J. Immunol. Methods 267: 13-26, 2002; Frank, Tetrahedron 48: 9217-9232, 1992). The peptides corresponded to the amino acid sequence of Gsα (Genbank accession number P04895, homo sapiens, Gsα long form; SEQ ID NO: 15), which was divided into overlapping peptides (12 amino acids in length with 7 amino acid overlap between sequential peptide, 73 total spots). Spot 1 corresponded to amino acids 1-12 and Spot 2 corresponded to residues 6-17 in the primary amino acid sequence (SEQ ID NO: 15), etc. […]
Ovine brain tubulin was prepared as previously described (Shelanski et al., Proc. Natl. Acad. Sci. USA. 70: 765-768, 1973). […] Purity of the prepared tubulin, as determined by SDS gel electrophoresis, was always greater than 95%. […] Protein concentrations were determined by Coomasie Blue binding (BioRad Protein Assay) with Bovine Serum Albumin as a standard (Bradford, Anal. Biochem. 72: 248-254, 1976). […]

tubulin [2] = conditions: cited from earlier work

Gsα: stimulatory G protein α subunit of adenylyl cyclase
effect of prior incubation of tubulin with Gsα on tubulin binding to the immobilized peptides (tubulin [1]): prevented tubulin from binding | binding to tubulin (in words) (tubulin [2]): bind with a high affinity | Kd (tubulin [2]; read-out: KD of tubulin binding): ~130 nM
